We go through 18 molecules from ChEMBL document CHEMBL1154809, “Conventional and microwave assisted synthesis of small molecule based biologically active heterocyclic amidine derivatives” (2010).

Experiment [1] concerns HCT-15. As to the kind of experiment: Anticancer activity against human HCT15 cells at 10 uM after 48 hrs by sulforhodamine B assay. Type of experiment: functional, cell-based.
Experiment [2] relates to DU-145. As to the kind of experiment: Anticancer activity against human DU145 cells at 10 uM after 48 hrs by sulforhodamine B assay. Type of experiment: functional, cell-based. A general note: Sulforhodamine B stains cellular protein and so reports cell mass.
Experiment [3] has as its system HOP-62. Kind of experiment: Anticancer activity against human HOP62 cells at 10 uM after 48 hrs by sulforhodamine B assay. The format is functional, cell-based.
The subject of experiment [4] is HepG32. Kind of experiment: Anticancer activity against human […] cells at 10 uM after 48 hrs by sulforhodamine B assay. Type of experiment: functional, cell-based.
The test system of experiment [5] is A549. Kind of experiment: Anticancer activity against human A549 cells at 10 uM after 48 hrs by sulforhodamine B assay. Type of experiment: functional, cell-based.
The test system of experiment [6] is Rattus norvegicus. Kind of experiment: Antiinflammatory activity against carrageenan-induced paw oedema in Charles Foster albino rat at 50 mg/kg, po administered 30 mins before carrageenan challenge measured after 1 to 3 hrs by water plethysmometer. The format is functional. A general note: The carrageenan paw model is a standard test of acute inflammation.
Experiment [7] concerns IMR-32. Kind of experiment: Anticancer activity against human IMR32 cells at 10 uM after 48 hrs by sulforhodamine B assay. Type of experiment: functional, cell-based.

Each structure is given as a SMILES string. The source made the active and inactive calls. No cut-off for these calls is given here.

`N/C(=N/Cc1ccncc1)c1ccccn1`: the outcome in experiment [1], in experiment [2], in experiment [3], in experiment [4], in experiment [5] and in experiment [7] was inactive. For the same molecule, the Activity in experiment [6] came out at 28.2%.
In the case of `N/C(=N/Cc1ccco1)c1ccncc1`, the result in experiment [1], in experiment [2], in experiment [3], in experiment [4], in experiment [5] and in experiment [7] was inactive. The Activity in experiment [6] was found to be 15.2%.
On to `N/C(=N/CCc1c[nH]cn1)c1ccncc1`, for which the outcome in experiment [1], in experiment [2], in experiment [3], in experiment [4], in experiment [5] and in experiment [7] was inactive. The molecule further displayed an Activity in experiment [6] of 22.1%.
For the molecule `N/C(=N/Cc1ccncc1)c1cnccn1`, the result in experiment [1], in experiment [2], in experiment [3], in experiment [4], in experiment [5] and in experiment [7] was inactive. This molecule had an Activity in experiment [6] of 32%.
As for `CC(C)Cc1ccc(C(C)C(=O)O)cc1` (stereo unspecified) [IBUPROFEN], the result in experiment [1], in experiment [2], in experiment [3], in experiment [4], in experiment [5] and in experiment [7] was inactive. Besides, the Activity in experiment [6] came to 39%.
As to `N/C(=N/CCCn1ccnc1)c1ccncc1`, the result in experiment [1], in experiment [2], in experiment [3], in experiment [4], in experiment [5] and in experiment [7] was inactive. Further, the Activity in experiment [6] amounted to 10%.
In the case of `N/C(=N/CCc1c[nH]c2ccccc12)c1cnccn1`, the result in experiment [1], in experiment [2], in experiment [3], in experiment [4], in experiment [5] and in experiment [7] was inactive. Also, the Activity in experiment [6] is given as 23.9%.
Consider `N/C(=N/CCc1c[nH]c2ccccc12)c1ccccn1`, for which the result in experiment [1], in experiment [2], in experiment [3], in experiment [4], in experiment [5] and in experiment [7] was inactive. The molecule also showed an Activity in experiment [6] of 23.6%.
As for `N/C(=N/Cc1ccncc1)c1ccncc1`, the outcome in experiment [1], in experiment [2], in experiment [3], in experiment [4], in experiment [5] and in experiment [7] was inactive. In experiment [6], this molecule yielded an Activity of 31%.
`N/C(=N/Cc1ccccn1)c1cnccn1`: the result in experiment [1], in experiment [2], in experiment [3], in experiment [4], in experiment [5] and in experiment [7] was inactive. Moreover, the Activity in experiment [6] is given as 0%.
Consider `N/C(=N/CCc1c[nH]c2ccccc12)c1ccncc1`, for which the outcome in experiment [1], in experiment [2], in experiment [3], in experiment [4], in experiment [5] and in experiment [7] was inactive. In addition, in experiment [6], the Activity is listed as 28.2%.
On to `N/C(=N/CCc1c[nH]cn1)c1cnccn1`, for which the result in experiment [1], in experiment [2], in experiment [3], in experiment [4], in experiment [5] and in experiment [7] was inactive. This molecule also gave an Activity in experiment [6] of 25.4%.
Regarding `N/C(=N/Cc1ccco1)c1ccccn1`, the outcome in experiment [1], in experiment [2], in experiment [3], in experiment [4], in experiment [5] and in experiment [7] was inactive. Moreover, the Activity in experiment [6] amounted to 28.7%.
Consider `N/C(=N/Cc1ccco1)c1cnccn1`, for which the result in experiment [1], in experiment [2], in experiment [3], in experiment [4], in experiment [5] and in experiment [7] was inactive. For the same molecule, in experiment [6], the Activity is reported as 36.6%.
Consider `N/C(=N/CCCn1ccnc1)c1cnccn1`, for which the outcome in experiment [1], in experiment [2], in experiment [3], in experiment [4], in experiment [5] and in experiment [7] was inactive. In experiment [6], this molecule yielded an Activity of 21.8%.
As for `N/C(=N/CCCn1ccnc1)c1ccccn1`, the outcome in experiment [1], in experiment [2], in experiment [3], in experiment [4], in experiment [5] and in experiment [7] was inactive. For the same molecule, the Activity in experiment [6] is recorded as 18.8%.
In the case of `N/C(=N/Cc1ccccn1)c1ccncc1`, the result in experiment [1], in experiment [2], in experiment [3], in experiment [4], in experiment [5] and in experiment [7] was inactive. The molecule further showed an Activity in experiment [6] of 33.8%.
Take `N/C(=N/CCc1c[nH]cn1)c1ccccn1`: the outcome in experiment [1], in experiment [2], in experiment [3], in experiment [4], in experiment [5] and in experiment [7] was inactive. This molecule showed an Activity in experiment [6] of 26.8%.
